Test [1] concerns the target Mitogen-activated protein kinase kinase kinase kinase 4 (Homo sapiens, UniProt O95819). Put plainly: Inhibition of MAP4K4 (unknown origin) at 1 uM by Ambit Kinomescan binding assay relative to control.
Test [2] deals with T1, Phosphatidylinositol 4,5-bisphosphate 3-kinase catalytic subunit delta isoform (Homo sapiens) (UniProt O00329).
T1 sequence (whole entry): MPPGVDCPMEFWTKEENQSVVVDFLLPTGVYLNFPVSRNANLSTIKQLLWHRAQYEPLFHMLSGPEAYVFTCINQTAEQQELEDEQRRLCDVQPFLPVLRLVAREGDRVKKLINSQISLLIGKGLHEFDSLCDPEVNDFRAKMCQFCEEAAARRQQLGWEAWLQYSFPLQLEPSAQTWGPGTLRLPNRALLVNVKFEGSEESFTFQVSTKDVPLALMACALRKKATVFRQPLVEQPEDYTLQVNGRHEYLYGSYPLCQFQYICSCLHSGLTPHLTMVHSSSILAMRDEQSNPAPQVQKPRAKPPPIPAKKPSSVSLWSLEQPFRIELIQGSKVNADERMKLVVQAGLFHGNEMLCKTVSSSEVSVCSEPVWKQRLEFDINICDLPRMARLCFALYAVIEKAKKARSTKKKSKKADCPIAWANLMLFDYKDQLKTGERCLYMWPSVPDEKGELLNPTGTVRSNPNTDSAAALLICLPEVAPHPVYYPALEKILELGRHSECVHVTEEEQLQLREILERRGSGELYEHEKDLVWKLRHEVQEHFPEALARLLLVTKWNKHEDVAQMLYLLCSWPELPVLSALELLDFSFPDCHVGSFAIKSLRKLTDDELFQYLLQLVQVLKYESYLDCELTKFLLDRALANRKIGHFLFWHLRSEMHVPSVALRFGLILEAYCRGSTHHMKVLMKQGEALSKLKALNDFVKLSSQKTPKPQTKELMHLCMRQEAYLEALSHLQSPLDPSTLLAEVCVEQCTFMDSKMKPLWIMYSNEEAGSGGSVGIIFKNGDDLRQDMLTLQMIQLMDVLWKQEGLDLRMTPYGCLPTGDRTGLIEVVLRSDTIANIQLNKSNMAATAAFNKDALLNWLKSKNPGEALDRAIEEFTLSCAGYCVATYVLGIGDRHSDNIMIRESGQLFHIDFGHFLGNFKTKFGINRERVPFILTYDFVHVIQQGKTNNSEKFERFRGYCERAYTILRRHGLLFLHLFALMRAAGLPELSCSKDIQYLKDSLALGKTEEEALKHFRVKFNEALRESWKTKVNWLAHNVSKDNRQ
The test can be described thus: Inhibition of PIK3CD ATP labeling site in human A-375 cells at 0.5 uM by KiNativ Profiling analysis relative to control. The class given is cell-based.

Test [3] addresses T2, Acylglycerol kinase, mitochondrial (Homo sapiens) (UniProt Q53H12).
T2 sequence (whole entry): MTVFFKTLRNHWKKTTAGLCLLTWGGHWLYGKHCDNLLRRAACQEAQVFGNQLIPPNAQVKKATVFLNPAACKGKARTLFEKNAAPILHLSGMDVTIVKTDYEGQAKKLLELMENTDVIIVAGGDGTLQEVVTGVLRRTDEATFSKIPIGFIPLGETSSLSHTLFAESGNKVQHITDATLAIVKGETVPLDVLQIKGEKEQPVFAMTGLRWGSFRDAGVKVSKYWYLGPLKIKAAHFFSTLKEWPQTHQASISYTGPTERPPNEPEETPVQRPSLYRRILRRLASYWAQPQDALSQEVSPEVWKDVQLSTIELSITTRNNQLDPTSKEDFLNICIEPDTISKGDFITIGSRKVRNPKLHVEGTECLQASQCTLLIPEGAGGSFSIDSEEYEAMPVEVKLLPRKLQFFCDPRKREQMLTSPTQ
Put plainly: Inhibition of AGK ATP labeling site in human A-375 cells at 0.05 uM by KiNativ Profiling analysis relative to control. The class given is cell-based.

The target in test [4] is Mitogen-activated protein kinase 7 (Homo sapiens) (UniProt Q13164). Put plainly: Inhibition of Erk5 Lys2 labeling site in human A-375 cells at 0.05 uM by KiNativ Profiling analysis relative to control. The class given is cell-based.
In test [5] the target is T3, Mitogen-activated protein kinase kinase kinase 15 (Homo sapiens) (UniProt Q6ZN16).
T3 sequence (whole entry): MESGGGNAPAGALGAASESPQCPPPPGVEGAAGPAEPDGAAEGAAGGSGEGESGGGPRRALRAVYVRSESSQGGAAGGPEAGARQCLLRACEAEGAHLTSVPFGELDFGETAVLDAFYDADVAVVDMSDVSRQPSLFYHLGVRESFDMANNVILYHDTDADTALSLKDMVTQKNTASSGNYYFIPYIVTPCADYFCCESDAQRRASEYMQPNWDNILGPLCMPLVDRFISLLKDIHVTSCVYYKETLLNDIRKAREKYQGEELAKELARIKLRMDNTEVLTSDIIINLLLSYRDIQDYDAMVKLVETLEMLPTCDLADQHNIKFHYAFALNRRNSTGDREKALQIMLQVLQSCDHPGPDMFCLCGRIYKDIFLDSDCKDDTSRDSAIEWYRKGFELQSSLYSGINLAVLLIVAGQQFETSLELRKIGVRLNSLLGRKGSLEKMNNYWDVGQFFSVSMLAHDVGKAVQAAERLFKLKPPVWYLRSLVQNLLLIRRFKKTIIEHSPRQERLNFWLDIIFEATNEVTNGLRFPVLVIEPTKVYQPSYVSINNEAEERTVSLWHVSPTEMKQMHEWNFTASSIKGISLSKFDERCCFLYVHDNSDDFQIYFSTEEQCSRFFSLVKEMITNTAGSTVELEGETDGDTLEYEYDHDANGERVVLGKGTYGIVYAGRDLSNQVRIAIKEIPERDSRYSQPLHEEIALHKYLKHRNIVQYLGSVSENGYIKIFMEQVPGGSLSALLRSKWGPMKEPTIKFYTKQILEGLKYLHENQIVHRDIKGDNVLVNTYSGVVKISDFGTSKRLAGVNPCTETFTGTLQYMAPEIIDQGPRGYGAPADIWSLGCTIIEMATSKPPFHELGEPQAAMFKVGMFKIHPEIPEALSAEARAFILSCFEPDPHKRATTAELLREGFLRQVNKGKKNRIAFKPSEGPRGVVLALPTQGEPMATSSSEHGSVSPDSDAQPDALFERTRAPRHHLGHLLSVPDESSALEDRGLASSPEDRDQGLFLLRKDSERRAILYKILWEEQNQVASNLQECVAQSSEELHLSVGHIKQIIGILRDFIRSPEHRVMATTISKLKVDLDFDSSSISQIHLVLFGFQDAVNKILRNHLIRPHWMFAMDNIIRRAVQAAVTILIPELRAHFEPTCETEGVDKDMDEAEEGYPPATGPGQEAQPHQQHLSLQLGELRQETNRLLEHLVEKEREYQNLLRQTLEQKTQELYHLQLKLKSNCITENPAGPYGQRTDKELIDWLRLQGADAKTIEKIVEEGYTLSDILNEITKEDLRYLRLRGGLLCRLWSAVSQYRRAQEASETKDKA
Put plainly: Inhibition of MAP3K15 Lys1 labeling site harbouring IAIKEIPERDSR in human A-375 cells at 0.05 uM by KiNativ Profiling analysis relative to control. The class given is cell-based.

Mitogen-activated protein kinase 7 (Homo sapiens), sequence (Q13164 2-816 limits assumed): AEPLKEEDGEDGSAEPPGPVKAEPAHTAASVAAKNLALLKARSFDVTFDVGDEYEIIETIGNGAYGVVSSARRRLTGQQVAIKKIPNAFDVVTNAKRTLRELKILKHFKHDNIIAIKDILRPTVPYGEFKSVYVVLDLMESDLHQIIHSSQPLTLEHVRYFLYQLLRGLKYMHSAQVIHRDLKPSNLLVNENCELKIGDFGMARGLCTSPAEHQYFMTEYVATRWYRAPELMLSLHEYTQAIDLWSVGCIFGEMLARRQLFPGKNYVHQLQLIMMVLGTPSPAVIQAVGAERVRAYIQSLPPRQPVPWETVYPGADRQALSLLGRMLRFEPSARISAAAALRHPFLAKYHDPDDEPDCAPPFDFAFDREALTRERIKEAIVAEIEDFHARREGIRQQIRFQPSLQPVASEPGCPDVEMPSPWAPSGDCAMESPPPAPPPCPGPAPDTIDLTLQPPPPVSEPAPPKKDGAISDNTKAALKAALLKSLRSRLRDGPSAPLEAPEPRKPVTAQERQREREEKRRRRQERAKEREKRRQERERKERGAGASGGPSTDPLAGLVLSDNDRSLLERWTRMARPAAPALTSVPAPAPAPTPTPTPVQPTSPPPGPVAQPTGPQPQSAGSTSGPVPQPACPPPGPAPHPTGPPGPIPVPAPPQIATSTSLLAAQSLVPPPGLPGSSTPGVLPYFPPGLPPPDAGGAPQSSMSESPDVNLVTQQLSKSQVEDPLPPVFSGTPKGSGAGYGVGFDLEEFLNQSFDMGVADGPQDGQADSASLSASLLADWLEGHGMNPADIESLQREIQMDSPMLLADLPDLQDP
Mitogen-activated protein kinase kinase kinase kinase 4, sequence (O95819 2-1239 limits assumed): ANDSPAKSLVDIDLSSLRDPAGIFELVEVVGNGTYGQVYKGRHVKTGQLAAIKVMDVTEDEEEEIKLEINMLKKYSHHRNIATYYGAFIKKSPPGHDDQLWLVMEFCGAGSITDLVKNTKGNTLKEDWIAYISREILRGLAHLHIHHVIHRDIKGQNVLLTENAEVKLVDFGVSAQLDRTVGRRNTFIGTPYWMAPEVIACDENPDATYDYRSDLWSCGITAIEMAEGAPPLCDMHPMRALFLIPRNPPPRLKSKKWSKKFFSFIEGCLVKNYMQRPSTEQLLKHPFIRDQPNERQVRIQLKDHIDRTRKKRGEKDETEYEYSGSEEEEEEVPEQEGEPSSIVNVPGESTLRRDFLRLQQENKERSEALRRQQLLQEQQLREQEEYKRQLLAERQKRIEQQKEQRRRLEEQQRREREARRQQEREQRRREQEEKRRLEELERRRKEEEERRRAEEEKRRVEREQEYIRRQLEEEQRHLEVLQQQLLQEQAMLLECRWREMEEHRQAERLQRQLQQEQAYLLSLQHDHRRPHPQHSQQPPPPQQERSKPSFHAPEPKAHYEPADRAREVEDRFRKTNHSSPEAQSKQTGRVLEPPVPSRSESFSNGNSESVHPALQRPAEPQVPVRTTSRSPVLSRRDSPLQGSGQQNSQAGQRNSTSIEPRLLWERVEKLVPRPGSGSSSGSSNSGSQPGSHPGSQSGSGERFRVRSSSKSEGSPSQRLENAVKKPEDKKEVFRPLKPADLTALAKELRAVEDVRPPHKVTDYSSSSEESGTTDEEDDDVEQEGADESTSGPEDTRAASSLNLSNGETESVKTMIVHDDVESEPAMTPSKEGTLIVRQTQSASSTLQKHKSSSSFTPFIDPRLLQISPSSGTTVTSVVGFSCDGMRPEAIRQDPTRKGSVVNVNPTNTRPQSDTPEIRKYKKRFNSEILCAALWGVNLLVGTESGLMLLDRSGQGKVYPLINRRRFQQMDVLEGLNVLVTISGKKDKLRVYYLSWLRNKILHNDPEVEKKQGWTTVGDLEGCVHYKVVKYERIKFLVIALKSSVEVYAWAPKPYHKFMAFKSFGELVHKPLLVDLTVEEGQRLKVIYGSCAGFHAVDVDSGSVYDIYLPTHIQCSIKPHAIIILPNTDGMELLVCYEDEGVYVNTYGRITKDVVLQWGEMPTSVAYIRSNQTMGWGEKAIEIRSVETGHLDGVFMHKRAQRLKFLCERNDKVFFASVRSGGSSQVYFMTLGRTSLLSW

As a reminder, the inhibition is the drop in the measured response relative to a control, in per cent. As for `CCN1CCN(Cc2ccc(NC(=O)c3ccc(C)c(/C=C/c4cnc5[nH]ccc5c4OC)c3)cc2C(F)(F)F)CC1`, the results for the inhibition in test [1], in test [2] and in test [3] were 1.8%, 4.2% and 16.8%, respectively.
Consider `CCN1CCN(Cc2ccc(NC(=O)c3ccc(C)c(Oc4ccnc5[nH]ccc45)c3)cc2C(F)(F)F)CC1`, for which the figures for the inhibition in test [4] and in test [5] were 5.3% and -3.3%, respectively.

The values are drawn from ChEMBL document CHEMBL5696442, “Discovery of type II inhibitors of TGFβ-activated kinase 1 (TAK1) and mitogen-activated protein kinase kinase kinase kinase 2 (MAP4K2)” (J Med Chem, 2015).
